We go through two molecules from patent publication US11286247B2, “Acryloyl-containing nuclear transport regulators and uses thereof” (WIGEN BIOMEDICINE TECHNOLOGY (SHANGHAI) CO., LTD., priority 2019, dated 2022).

SMILES strings stand for the structures. pIC50: −log10 of the molar value. ≈ marks a conversion by molar mass, not a printed value. Entries after “also recorded” stand apart in the source; their conditions may differ. Read-outs that look alike come from different tables or passages of the source.

For one series, the target named is T1, CRM1 (Homo sapiens, UniProt O14980).
T1 construct: The nuclear localization of Rev protein depends on CRM1; endogenous in cells; host or cells: U2OS cells stably or transiently expressing Rev-GFP (reporter cargo)
The experiment in a line: Rev-GFP nuclear export assay. In kind it is cell-based. Conditions: U2OS cells expressing Rev-GFP, 1 hour incubation, nuclear retention of Rev-GFP. On the procedure: The Rev protein from HIV contains nuclear export sequence (NES) at its C terminus and nuclear localization sequence (NLS) at its N-terminus. The nuclear localization of Rev protein depends on CRM1. U2OS cells expressing Rev protein fused with GFP (Rev-GFP) were plated in black 384 plates with clear bottom one day prior to treatment. Compounds were serially diluted 2-fold from 40 μM with DMEM in 384 plates, and then incubated with U2OS cells for an hour. Cells were fixed with 3.7% formaldehyde afterwards and nuclei were stained with Hoechst33258. The nuclear retention of Rev-GFP was examined, and IC50 was calculated.

The test system of series [1] is BxPC-3 cells (pancreatic cancer). The experiment in a line: Cancer cell proliferation assay, BxPC-3. In kind it is cell-based. Conditions: Homo sapiens, BXPC-3, 72 h; three days incubation, absorbance 570 nm; read-out: IC50 (μM) BxPC-3. As for the experimental part: (§1) BxPC-3 cells (pancreatic cancer) and MDA-MB-231 cells (breast cancer cells) were harvested from exponential phase cultures and seeded in 96-well plates at a cell density of 2×10^4 per well. After overnight attachment, compounds including positive controls were applied to cells at five concentrations and incubated for three days. During the last four hours of incubation, 20 μL of 5 mg/mL […] was added followed by the further addition of 100 μL DMSO. The plates were subsequently shook for 10 minutes to dissolve insoluble purple formazan. Absorbance (A) at a wavelength of 570 nm was quantified. Percentage of inhibition was used for the calculation of IC50 based on the bliss method.

Series [2] has as its system MDA-MB-231 cells (breast cancer cells). Description: Cancer cell proliferation assay, MDA-MB-231. Particulars: Homo sapiens, MDA-MB-231, 72 h; three days incubation, absorbance 570 nm; read-out: IC50 (μM) MDA-MB-231. In kind it is cell-based. As for the experimental part:
as §1

A short description of another series: Aqueous solubility assay. In kind it is physicochemical. Particulars: thermodynamic from solid, HPLC. On the procedure: 10-30 mg of compounds were dissolved in water and an HCl solution at pH1.2 respectively, and then were continuously shook for three days, followed by centrifugation at 10000 rpm/minute for five minutes. A 2 mL aliquot of supernatant was removed and diluted to 50 mL to prepare a sample solution. A control solution was prepared by dissolving 2.5 mg compounds in methanol, which was subsequently diluted with water to a final volume of 50 mL. 20 μL of control and sample solutions were injected into HPLC. The area under the curve (A) of the sample solution was compared with that of the control solution and used for determination of the concentration. Solubility was calculated by the formula below. Solubility (mg/mL)=c(control)*25*A(sample)/A(control) • C (control): concentration of the control solution • A (sample): area under the curve of the sample solution • A (control): area under the curve of the control solution

Series [3] can be described thus: In vivo pharmacokinetic analysis. Conditions: ICR, mouse; mice, 5 mg/kg, oral gavage in 0.5% CMC, plasma. As for the experimental part:
A group of 9 ICR mice received 5 mg/kg of compound in 0.5% CMC by oral gavage. Blood was taken before treatment and at 5 min, 30 min, 1, 2, 4, 8, 12 and 24 h after treatment. 80 μL of whole blood was sampled (n=3 at each time point) via retro-orbital bleeds or cardiac puncture. The blood sample was collected into EDTA tubes and plasma were obtained by centrifugation at 1500-1600 rpm for 10 min at 4° C. After centrifugation, plasma sample was transferred to a new tube and stored at −60 to −90° C. for future analysis. Plasma concentration of (compounds was quantified by a method based on liquid chromatography coupled to tandem mass-spectrometric detections (LC/MS/MS). Noncompartmental pharmacokinetics parameters were calculated.

For the next series, the system named is BxPC-3 xenografts. The experiment in a line: Anti-tumor growth efficacy in pancreatic tumor BxPC3 nude mice xenograft model. In kind it is in vivo. Particulars: for Tumor volume D1 / average body weight D1: D1, first day of drug treatment; for Tumor volume D1 / average body weight D1 / TGI (tumor growth inhibition) / Tumor volume D21 / average body weight D21 / RTV (relative tumor volume, Vt/V0) / T/C: oral: KPT-330 and 38 10 mg/kg tiw, 79 2.5 mg/kg tiw, 62 10 mg/kg qd; for TGI (tumor growth inhibition) / Tumor volume D21 / average body weight D21 / RTV (relative tumor volume, Vt/V0): D21; for RTV (relative tumor volume, Vt/V0): *P < 0.05 vs. vehicle group; for anti-tumor growth activity in BxPC-3 xenograft model (in words): Example 79 2.5 mg/kg, Example 38 10 mg/kg, compared to 10 mg/kg KPT-330; for T/C: TRTV/CRTV X 100. On the procedure: BxPC-3 cells were cultured in 1640 medium containing 10% FBS at 37° C. and 5% CO2, 8×10^6 BxPc-3 cells were implanted subcutaneously into the left armpit of 40 nude mice. […] Compound 62 was administered orally everyday (qd) at 10 mg/kg, whereas KPT330 and compound 38 were given three times a week (tiw, Monday, Wednesday and Friday) at 10 mg/kg by oral gavage, and compound 79 were given three times a week (tiw, Monday, Wednesday and Friday) at 2.5 mg/kg by oral gavage. Tumor volume and body weight were measured every other day. Mice were sacrificed on day 21, and tumor and terminal body weight were recorded. The relative tumor volume, percent treatment/control values and tumor growth inhibition were calculated and statistics was performed.

Setting [4] is: simulated gastric fluid, HCl solution of pH 1.2, shaken three days, read-out: Solubility, HCl solution of pH 1.2.
Setting [5] is: water, shaken three days, read-out: Solubility, Water.

By pIC50 is commonly meant −log10 of the IC50, conventionally taken in molar units. High values mean a low IC50, low ones a high IC50. For orientation: IC50 means the concentration that gives 50% inhibition. The solubility is the dissolved amount per volume that the medium holds. As usually defined, the AUC(0-t) is exposure summed from dosing to a finite time, without extrapolation to infinity. A high value points to high exposure. What is called Cmax is the maximum level reached in the sampled fluid or tissue. What is called MRT is the average time that molecules of a dose stay in the body. The term Tmax denotes the time at which the peak concentration occurs. One may read the half-life as how long it takes for the measured level to halve. Usually T/C stands for the result in the treated group divided by that in the control group, in per cent.

T1 sequence (O14980 whole entry): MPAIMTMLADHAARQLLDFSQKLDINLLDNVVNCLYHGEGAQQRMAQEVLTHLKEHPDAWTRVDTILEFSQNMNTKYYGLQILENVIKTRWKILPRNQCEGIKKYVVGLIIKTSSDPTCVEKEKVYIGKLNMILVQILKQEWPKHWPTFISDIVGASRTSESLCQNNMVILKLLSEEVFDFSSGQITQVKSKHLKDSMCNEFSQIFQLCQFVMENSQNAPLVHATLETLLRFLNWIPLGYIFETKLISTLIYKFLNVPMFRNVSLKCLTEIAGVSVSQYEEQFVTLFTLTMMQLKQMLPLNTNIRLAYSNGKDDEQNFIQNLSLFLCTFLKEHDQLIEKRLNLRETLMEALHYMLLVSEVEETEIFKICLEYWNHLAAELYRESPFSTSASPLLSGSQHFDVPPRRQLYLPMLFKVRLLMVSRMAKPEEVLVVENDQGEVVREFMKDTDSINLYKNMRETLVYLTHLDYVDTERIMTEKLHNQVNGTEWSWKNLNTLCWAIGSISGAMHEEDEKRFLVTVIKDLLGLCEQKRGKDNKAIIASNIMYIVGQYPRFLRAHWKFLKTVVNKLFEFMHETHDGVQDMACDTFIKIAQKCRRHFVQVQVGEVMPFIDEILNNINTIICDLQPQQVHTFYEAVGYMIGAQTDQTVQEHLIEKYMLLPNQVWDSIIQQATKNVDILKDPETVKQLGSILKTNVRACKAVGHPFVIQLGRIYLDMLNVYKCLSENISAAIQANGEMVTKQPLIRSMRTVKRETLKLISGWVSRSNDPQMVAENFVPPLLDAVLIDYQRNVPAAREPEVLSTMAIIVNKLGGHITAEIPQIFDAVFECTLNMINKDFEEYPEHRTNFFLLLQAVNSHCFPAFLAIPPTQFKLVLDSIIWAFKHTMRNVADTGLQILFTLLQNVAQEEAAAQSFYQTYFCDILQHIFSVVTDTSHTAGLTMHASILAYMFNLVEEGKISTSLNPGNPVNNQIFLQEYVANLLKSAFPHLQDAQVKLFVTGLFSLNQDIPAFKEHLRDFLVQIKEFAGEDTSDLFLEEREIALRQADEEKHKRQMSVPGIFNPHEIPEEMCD

In the case of `O=C(/C=C\n1cnc(-c2cc(C(F)(F)F)cc(C(F)(F)F)c2)n1)NN1CCOCC1=O` [Compound 38, (Z)-3-(3-(3,5-bis(trifluoromethyl)phenyl)-1H-1,2,4-triazol-1-yl)-N-(3-oxomorpholino)acrylamide], the pIC50 against CRM1 was above 6.00. In addition, in series [1], the IC50 came to 0.283 µM. For the same molecule, in series [2], the IC50 was 0.654 µM. Further, the solubility at 3 days in “Aqueous solubility assay” (setting [4]) is 71.4 µg/mL (≈ 159 µM). The solubility at 3 days in “Aqueous solubility assay” (setting [5]) amounted to 50.4 µg/mL (≈ 112 µM). In series [3], the AUC(0-t) amounted to 4390 ng·h/mL, the highest level (Cmax) was 536 ng/mL, the MRT worked out at 6.67 h and the Tmax amounted to 0.5 h. Moreover, the half-life in series [3] was 4.53 h. In addition, the “effect on body weight (in words)” value with BxPC-3 xenografts (10 mg/kg, compared to KPT-330) is “less effect on body weight”. In the series on BxPC-3 xenografts, the “Tumor volume D1” value is on record as 65.89 ± 12.63 mm^3, the “average body weight D1” value stood at 19.02 g, the “TGI (tumor growth inhibition)” value turned out to be 78.20% and the “Tumor volume D21” value is listed as 149.62 ± 23.20 mm^3. Also, in the series on BxPC-3 xenografts, the “average body weight D21” value was determined as 20.80 g; the “RTV (relative tumor volume, Vt/V0)” value was 2.45*; the “anti-tumor growth activity in BxPC-3 xenograft model (in words)” value is given as “greater efficacy”; the T/C is listed as 36.02%.

In turn, `COC1=CC(=O)N(NC(=O)/C=C\n2cnc(-c3cc(C(F)(F)F)cc(C(F)(F)F)c3)n2)C1` [Compound 79, (Z)-3-(3-(3,5-bis(trifluoromethyl)phenyl)-1H-1,2,4-triazol-1-yl)-N-(4-methoxy-2-oxo-2,5-dihydro-1H-pyrrol-1-yl)acrylamide] showed a pIC50 against CRM1 above 6.00. In addition, the IC50 in series [1] was determined as 0.204 µM. In addition, the IC50 in series [2] turned out to be 0.126 µM. The solubility at 3 days in “Aqueous solubility assay” (setting [4]) is 8.54 µg/mL (≈ 18.5 µM). Moreover, in the series “Aqueous solubility assay” (setting [5]), the solubility at 3 days is 7.89 µg/mL (≈ 17.1 µM). For the same molecule, in series [3], the AUC(0-t) was 3410 ng·h/mL, the concentration peaked (Cmax) at 440 ng/mL, the MRT stood at 5.89 h and the Tmax turned out to be 1 h. In series [3], this molecule had a half-life of 3.42 h. Moreover, in the series on BxPC-3 xenografts, the “Tumor volume D1” value is on record as 66.87 ± 9.13 mm^3, the “average body weight D1” value was determined as 20.15 g, the “TGI (tumor growth inhibition)” value was 84.37% and the “Tumor volume D21” value is 126.90 ± 17.73 mm^3. Besides, in the series with BxPC-3 xenografts, the “average body weight D21” value stood at 21.30 g; the “RTV (relative tumor volume, Vt/V0)” value is 1.63*; the “anti-tumor growth activity in BxPC-3 xenograft model (in words)” value is given as “significant anti-tumor growth activity; also recorded: more potent in inhibiting tumor growth”; the T/C amounted to 49.20%.
